Laboratory results published in the NIST ThermoML archive (doi:10.1021/je800071q).
± gives the expanded uncertainty stated by the source.

Experiments:
[1] = 101.33 kPa, Liquid; for mass density: 298.1 K; for viscosity: 298.15 K
[2] = refractive index (Na D-line) (dimensionless); conditions: 298.1 K, 101.33 kPa, Liquid
[3] = Capillary tube (Ostwald / Ubbelohde) method

SMILES: c1ccsc1 [thiophene]
- mass density ([1]; Vibrating tube method): 1058.59 ± 0.14 kg/m3
- viscosity [1, 3]: 0.612 ± 0.007 mPa·s
- refractive index ([2]; Standard Abbe refractometry): 1.5253 ± 0.00041

SMILES: Cc1ccccc1 [toluene]
- mass density ([1]; Vibrating tube method): 862.2 ± 0.16 kg/m3
- viscosity [1, 3]: 0.577 ± 0.007 mPa·s
- refractive index ([2]; Standard Abbe refractometry): 1.49393 ± 0.00041

SMILES: CC(C)CC(C)(C)C [2,2,4-trimethylpentane]
- mass density ([1]; Vibrating tube method): 687.84 ± 0.23 kg/m3
- refractive index ([2]; Standard Abbe refractometry): 1.38921 ± 0.00041

SMILES: CCCCCCCCn1cc[n+](C)c1.O=S(=O)([N-]S(=O)(=O)C(F)(F)F)C(F)(F)F
- mass density [1]: 1319.78 ± 4.3 kg/m3
- viscosity [1]: 90.37 ± 4.8 mPa·s
- refractive index [2]: 1.4327 ± 0.00089
